Results published in patent US11649255B2, “Indazoles as hematopoietic progenitor kinase 1 (HPK1) inhibitors and methods using same” (1st Biotherapeutics, Inc., priority 2020, dated 2023).
Where two headings read alike, the source gives them in different places.

Tests used:
[1] = tested on: human peripheral blood pan T cells; test: IFNγ and IL-2 analysis of human peripheral pan T cells; assay type: cell-based; conditions: T-cell, CD3/CD28 bead stimulation, 100 nM Prostaglandin E2, 24 hr
Description: IFNγ and IL-2 Analysis of Human Peripheral Pan T Cells
Human peripheral blood pan T cells were purchased from STEMCELL™ Technologies Inc. Human peripheral blood pan T cells were thawed and suspended in DMEM media (10% FBS and 10 Penicillin/Streptomycin). 8×10^4 T cells were seeded in 96-well plate and incubated with various concentration of compounds and 100 nM Prostaglandin E2 for 1 hr. T cells were stimulated with Dynabeads Human T-Activator CD3/CD28 (Life Technologies) at a 1:3 cells: beads ratio. […] Data were analyzed with an MESO Quickplex SQ120 (Mesoscale Discovery).
In Table 3, the values represent + for >1000 nM, ++ 200-1,000 nM, +++ for <200 nM and − for not determined.

recombinant human HPK1 = recombinant human HPK1 (Homo sapiens (Human), UniProt Q92918); test: HPK1 kinase assay (ADP-Glo); assay type: biochemical; conditions: 25 μM ATP, MBP substrate
Summary of the method: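 Activity was read as ADP formed, detected by ADP-Glo luminescence after the reaction of 5 ng recombinant human HPK1 with MBP and ATP (stocks 0.5 μg/μl and 25 μM) for 40 min at 30 °C. Buffer was Tris pH 7.5 with MgCl2, BSA and DTT, with compound in 0.5% DMSO. IC50 came from inhibition curves.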

[2] = IFNγ secretion, read-out: IFNγ (EC50)
[3] = IL-2 secretion, read-out: IL-2 (EC50)

Sequence of recombinant human HPK1 (Q92918 whole entry): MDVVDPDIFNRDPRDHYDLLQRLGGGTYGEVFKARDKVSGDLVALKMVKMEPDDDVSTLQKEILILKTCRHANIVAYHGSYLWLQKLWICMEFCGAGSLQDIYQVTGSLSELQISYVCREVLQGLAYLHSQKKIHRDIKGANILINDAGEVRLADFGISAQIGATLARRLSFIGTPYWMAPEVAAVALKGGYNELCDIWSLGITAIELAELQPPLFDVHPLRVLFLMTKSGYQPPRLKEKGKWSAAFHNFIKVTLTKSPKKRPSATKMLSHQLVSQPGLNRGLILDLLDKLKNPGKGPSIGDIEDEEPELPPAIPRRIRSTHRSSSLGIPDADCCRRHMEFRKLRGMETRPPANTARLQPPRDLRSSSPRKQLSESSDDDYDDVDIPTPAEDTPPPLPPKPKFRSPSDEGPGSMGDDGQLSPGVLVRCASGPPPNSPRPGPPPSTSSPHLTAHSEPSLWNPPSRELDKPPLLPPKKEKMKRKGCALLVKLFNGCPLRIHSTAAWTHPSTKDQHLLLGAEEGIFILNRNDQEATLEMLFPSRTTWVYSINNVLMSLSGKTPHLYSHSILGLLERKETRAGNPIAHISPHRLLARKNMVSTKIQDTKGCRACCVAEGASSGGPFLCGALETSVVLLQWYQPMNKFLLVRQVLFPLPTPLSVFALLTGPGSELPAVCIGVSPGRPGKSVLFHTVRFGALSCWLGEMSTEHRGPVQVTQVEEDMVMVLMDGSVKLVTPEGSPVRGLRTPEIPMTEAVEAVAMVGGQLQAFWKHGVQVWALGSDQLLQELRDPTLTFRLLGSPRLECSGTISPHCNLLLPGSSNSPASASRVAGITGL

EC50 [1, 2] | EC50 [1, 3] | IC50 (recombinant human HPK1) | Compound
< 200 nM | 200 to 1000 nM | < 100 nM | CCOc1c(F)c(C)c(-c2ccn3nc(NC(=O)[C@@H]4C[C@@H]4F)cc3c2)c2cn[nH]c12 [Example 509, (1S,2S)-N-(5-(7-ethoxy-6-fluoro-5-methyl-1H-indazol-4-yl)pyrazolo[1,5-a]pyridin-2-yl)-2-fluorocyclopropane-1-carboxamide]
200 to 1000 nM | 200 to 1000 nM | < 100 nM | CC(=O)N(C)c1c(F)c(Cl)c(-c2ccn3nc(NC(=O)[C@@H]4C[C@@H]4F)cc3c2)c2cn[nH]c12 [Example 552, (1S,2S)-N-(5-(5-chloro-6-fluoro-7-(N-methylacetamido)-1H-indazol-4-yl)pyrazolo[1,5-a]pyridin-2-yl)-2-fluorocyclopropane-1-carboxamide]
< 200 nM | 200 to 1000 nM | < 100 nM | CN(C)c1c(F)c(Cl)c(-c2ccn3nc(NC(=O)[C@@H]4C[C@@H]4F)cc3c2)c2cn[nH]c12 [Example 484, (1S,2S)-N-(5-(5-chloro-7-(dimethylamino)-6-fluoro-1H-indazol-4-yl)pyrazolo[1,5-a]pyridin-2-yl)-2-fluorocyclopropane-1-carboxamide]
< 200 nM | 200 to 1000 nM | < 100 nM | CCN(C)c1c(F)c(SC)c(-c2ccn3nc(NC(=O)[C@@H]4C[C@@H]4F)cc3c2)c2cn[nH]c12 [Example 577, (1S,2S)-N-(5-(7-(ethyl(methyl)amino)-6-fluoro-5-(methylthio)-1H-indazol-4-yl)pyrazolo[1,5-a]pyridin-2-yl)-2-fluorocyclopropane-1-carboxamide]
200 to 1000 nM | 200 to 1000 nM | < 100 nM | CCc1c(F)cc2[nH]ncc2c1-c1ccc2nc(NC(=O)[C@@H]3C[C@@H]3F)sc2n1 [Example 152, (1S,2S)—N-(5-(5-ethyl-6-fluoro-1H-indazol-4-yl)thiazolo[5,4-b]pyridin-2-yl)-2-fluorocyclopropane-1-carboxamide]
200 to 1000 nM | > 1000 nM | < 100 nM | CN(C)C(=O)c1c(F)c(Cl)c(-c2ccc3nc(NC(=O)[C@@H]4C[C@@H]4F)sc3n2)c2cn[nH]c12 [Example 193, 5-chloro-6-fluoro-4-(2-((1S,2S)-2-fluorocyclopropane-1-carboxamido)thiazolo[5,4-b]pyridin-5-yl)-N,N-dimethyl-1H-indazole-7-carboxamide]
200 to 1000 nM | 200 to 1000 nM | < 100 nM | Cc1c(F)c(C(=O)N(C)C)c2[nH]ncc2c1-c1ccc2nc(NC(=O)[C@@H]3C[C@@H]3F)cn2c1 [Example 329, 6-fluoro-4-(2-((1S,2S)-2-fluorocyclopropane-1-carboxamido)imidazo[1,2-a]pyridin-6-yl)-N,N,5-trimethyl-1H-indazole-7-carboxamide]
200 to 1000 nM |  |  | CSc1c(F)c(SC)c2[nH]ncc2c1-c1ccc2nc(NC(=O)[C@@H]3C[C@@H]3F)sc2c1 [Example 111, (1S,2S)-2-fluoro-N-(6-(6-fluoro-5,7-bis(methylthio)-1H-indazol-4-yl)benzo[d]thiazol-2-yl)cyclopropane-1-carboxamide]
200 to 1000 nM |  | < 100 nM | CCOc1c(F)c(CC)c(-c2ccc3nc(NC(=O)[C@@H]4C[C@@H]4F)sc3c2)c2cn[nH]c12 [Example 107, (1S,2S)-N-(6-(7-ethoxy-5-ethyl-6-fluoro-1H-indazol-4-yl)benzo[d]thiazol-2-yl)-2-fluorocyclopropane-1-carboxamide]
200 to 1000 nM | 200 to 1000 nM |  | CC(=O)N(C)c1c(F)c(C)c(-c2ccn3nc(NC(=O)[C@@H]4C[C@@H]4F)cc3c2)c2cn[nH]c12 [Example 550, (1S,2S)-2-fluoro-N-(5-(6-fluoro-5-methyl-7-(N-methylacetamido)-1H-indazol-4-yl)pyrazolo[1,5-a]pyridin-2-yl)cyclopropane-1-carboxamide]
< 200 nM |  | < 100 nM | CCOc1c(F)c(SC)c(-c2ccc3nc(NC(=O)[C@@H]4C[C@@H]4F)sc3n2)c2cn[nH]c12 [Example 184, (1S,2S)-N-(5-(7-ethoxy-6-fluoro-5-(methylthio)-1H-indazol-4-yl)thiazolo[5,4-b]pyridin-2-yl)-2-fluorocyclopropane-1-carboxamide]
200 to 1000 nM |  |  | CSc1c(F)c(C)c(-c2ccc3nc(NC(=O)[C@@H]4C[C@@H]4F)sc3n2)c2cn[nH]c12 [Example 173, (1S,2S)-2-fluoro-N-(5-(6-fluoro-5-methyl-7-(methylthio)-1H-indazol-4-yl)thiazolo[5,4-b]pyridin-2-yl)cyclopropane-1-carboxamide]
< 200 nM | 200 to 1000 nM | < 100 nM | CCN(C)c1c(F)c(SC)c(-c2ccc3nc(NC(=O)[C@@H]4C[C@@H]4F)cn3c2)c2cn[nH]c12 [Example 324, (1S,2S)-N-(6-(7-(ethyl(methyl)amino)-6-fluoro-5-(methylthio)-1H-indazol-4-yl)imidazo[1,2-a]pyridin-2-yl)-2-fluorocyclopropane-1-carboxamide]
200 to 1000 nM | > 1000 nM | < 100 nM | Cc1c(F)c(N(C)C)c2[nH]ncc2c1-c1ccc2nc(NC(=O)[C@@H]3C[C@@H]3F)sc2c1 [Example 104, (1S,2S)-N-(6-(7-(dimethylamino)-6-fluoro-5-methyl-1H-indazol-4-yl)benzo[d]thiazol-2-yl)-2-fluorocyclopropane-1-carboxamide]
200 to 1000 nM | > 1000 nM | < 100 nM | CCc1c(F)c(SCC(=O)NC)c2[nH]ncc2c1-c1ccc2nc(NC(=O)[C@@H]3C[C@@H]3F)sc2n1 [Example 167, (1S,2S)-N-(5-(5-ethyl-6-fluoro-7-((2-(methylamino)-2-oxoethyl)thio)-1H-indazol-4-yl)thiazolo[5,4-b]pyridin-2-yl)-2-fluorocyclopropane-1-carboxamide]
200 to 1000 nM | > 1000 nM | < 100 nM | Cc1c(F)c(N(C)C)c2[nH]ncc2c1-c1ccc2nc(NC(=O)[C@@H]3C[C@@H]3F)sc2n1 [Example 169, (1S,2S)-N-(5-(7-(dimethylamino)-6-fluoro-5-methyl-1H-indazol-4-yl)thiazolo[5,4-b]pyridin-2-yl)-2-fluorocyclopropane-1-carboxamide]
< 200 nM | 200 to 1000 nM | < 100 nM | CCOc1c(F)c(SC)c(-c2ccn3nc(NC(=O)[C@@H]4C[C@@H]4F)cc3c2)c2cn[nH]c12 [Example 543, (1S,2S)-N-(5-(7-ethoxy-6-fluoro-5-(methylthio)-1H-indazol-4-yl)pyrazolo[1,5-a]pyridin-2-yl)-2-fluorocyclopropane-1-carboxamide]
200 to 1000 nM |  | < 100 nM | CN(c1c(F)c(Cl)c(-c2ccn3nc(NC(=O)[C@@H]4C[C@@H]4F)cc3c2)c2cn[nH]c12)C1CCC(O)CC1 (stereo partly drawn) [Example 503, (1S,2S)-N-(5-(5-chloro-6-fluoro-7-((4-hydroxycyclohexyl)(methyl)amino)-1H-indazol-4-yl)pyrazolo[1,5-a]pyridin-2-yl)-2-fluorocyclopropane-1-carboxamide]
< 200 nM | < 200 nM | < 100 nM | CCc1c(F)c(SCC(=O)NC)c2[nH]ncc2c1-c1ccn2nc(NC(=O)[C@@H]3C[C@@H]3F)cc2c1 [Example 521, (1S,2S)-N-(5-(5-ethyl-6-fluoro-7-((2-(methylamino)-2-oxoethyl)thio)-1H-indazol-4-yl)pyrazolo[1,5-a]pyridin-2-yl)-2-fluorocyclopropane-1-carboxamide bis(2,2,2-trifluoroacetate)]
200 to 1000 nM |  | < 100 nM | CCc1c(F)c(SC)c2[nH]ncc2c1-c1ccc2nc(NC(=O)[C@@H]3C[C@@H]3F)sc2n1 [Example 162, (1S,2S)-N-(5-(5-ethyl-6-fluoro-7-(methylthio)-1H-indazol-4-yl)thiazolo[5,4-b]pyridin-2-yl)-2-fluorocyclopropane-1-carboxamide]
200 to 1000 nM |  |  | CSc1c(F)c(C)c(-c2ccn3nc(NC(=O)C4CC4)cc3c2)c2cn[nH]c12 [Example 562, N-(5-(6-fluoro-5-methyl-7-(methylthio)-1H-indazol-4-yl)pyrazolo[1,5-a]pyridin-2-yl)cyclopropanecarboxamide]
200 to 1000 nM |  |  | CCN(C)c1c(F)c(Cl)c(-c2ccc3nc(NC(=O)[C@@H]4C[C@@H]4F)sc3n2)c2cn[nH]c12 [Example 196, (1S,2S)-N-(5-(5-chloro-7-(ethyl(methyl)amino)-6-fluoro-1H-indazol-4-yl)thiazolo[5,4-b]pyridin-2-yl)-2-fluorocyclopropane-1-carboxamide]
200 to 1000 nM | 200 to 1000 nM |  | CCN(C)c1c(F)c(C)c(-c2ccc3nc(NC(=O)[C@@H]4C[C@@H]4F)cn3c2)c2cn[nH]c12 [Example 330, (1S,2S)-N-(6-(7-(ethyl(methyl)amino)-6-fluoro-5-methyl-1H-indazol-4-yl)imidazo[1,2-a]pyridin-2-yl)-2-fluorocyclopropane-1-carboxamide]
200 to 1000 nM | 200 to 1000 nM |  | CSc1c(F)c(C)c(-c2ccn3nc(NC(=O)[C@H]4C[C@H]4F)cc3c2)c2cn[nH]c12 [Example 574, (1R,2R)-2-fluoro-N-(5-(6-fluoro-5-methyl-7-(methylthio)-1H-indazol-4-yl)pyrazolo[1,5-a]pyridin-2-yl)cyclopropane-1-carboxamide]
